{"source": "paper PMC11596557", "about": "“Exiguolysin, a Novel Thermolysin (M4) Peptidase from Exiguobacterium oxidotolerans” (Microorganisms, 2024)", "key": {"[1]": {"target": "thermolysin-like protease of E. oxidotolerans (exiguolysin) (Exiguobacterium oxidotolerans, UniProt A0A653I866)", "sequence (A0A653I866 entry or part of it)": "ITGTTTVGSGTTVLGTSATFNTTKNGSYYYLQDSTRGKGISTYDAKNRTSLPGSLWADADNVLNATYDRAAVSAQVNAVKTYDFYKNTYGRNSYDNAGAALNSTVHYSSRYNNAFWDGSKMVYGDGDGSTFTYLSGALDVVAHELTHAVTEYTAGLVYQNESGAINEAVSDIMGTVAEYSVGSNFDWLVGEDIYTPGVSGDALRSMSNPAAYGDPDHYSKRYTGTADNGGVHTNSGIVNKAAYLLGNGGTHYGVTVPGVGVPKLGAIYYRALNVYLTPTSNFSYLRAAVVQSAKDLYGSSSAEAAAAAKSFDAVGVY", "test": "Inhibitor screening and Ki determination, fluorogenic MMP substrate assay", "type": "biochemical", "conditions": "fluorogenic substrate hydrolysis, 37 °C; Morrison equation for tight-binding inhibitors; Km 14.20 µM; read-out: True Ki", "experimental": "The inhibition of protease activity was screened using a 20 × 20 library of N-alpha dipeptide mercaptoamide inhibitors as previously described by Cathcart et al., and the half-maximal inhibitory constant (Ki) values were determined. In order to determine Michaelis–Menten constant, Km, of the fluorogenic substrate, exiguolysin (previously purified by HIC, final concentration 5 units/well) was added to wells of a 96-well black microtitre plate (Nunc); the volume was adjusted to 75 µL in assay buffer (25 mM Tris, 2.5 mM CaCl2, pH 7.0), and fluorogenic substrate (25 µL) was added at concentrations of 0, 1, 10, 25, 50, 100 and 200 µM. Time-dependent hydrolysis of the fluorogenic substrate was measured (excitation/emission […] nm) every 30 s for 30 min. The Km is determined using the Michealis–Menten equation, by plotting the rate of substrate hydrolysis against substrate concentration.\nInitially, each inhibitor was tested at a final concentration of 100 µM in a broad-spectrum screen, employing a standard fluorogenic substrate assay using Mca-Lys-Pro-Leu-Gly-Leu-Dap-(Dnp)-Ala-Arg-NH2. Enzyme reactions were carried out in a 96-well black plate at 37 °C, and fluorescence was monitored as described above."}, "[2]": {"system": "E. oxidotolerans peptidase", "test": "Fluorogenic substrate hydrolysis progress curves with class-specific inhibitors (purified enzyme)", "type": "biochemical, Exiguobacterium oxidotolerans", "conditions": "1,10 phenanthroline 2 mM, PMSF 0.2 mM, E-64 10 μM", "experimental": "Peptidase activity was confirmed using the matrix metalloproteinase (MMP) substrate Mca-Lys-Pro-Leu-Gly-Leu-Dap-(Dnp)-Ala-Arg-NH2 (Peptides International). Class-specific inhibitors were used to determine the catalytic mechanism, including E-64 (10 μM) for cysteine proteases, 1,10 phenanthroline (2 mM) for metalloproteases, and PMSF (0.2 mM) for serine proteases. These concentrations were selected based on established guidelines for effective inhibition. Fluorescence was monitored at excitation 330 nm and emission 460 nm over a 45 min period as described previously.\nTime-dependent hydrolysis of the fluorogenic substrate Mca-Lys-Pro-Leu-Gly-Leu-Dap-(Dnp)-Ala-Arg-NH2 by exiguolysin was measured in 96-well plates (total volume 100 µL) with fluorescence was measured every 30 s for 45 min using a plate reader (excitation at 330 nm and emission at 460 nm). Progress curves were generated, and kinetic parameters were determined using non-linear regression."}, "[3]": {"system": "E. oxidotolerans protease", "test": "Azocasein hydrolysis with class-specific protease inhibitors (culture supernatant)", "type": "biochemical, Exiguobacterium oxidotolerans", "conditions": "1,10-phenanthroline 2 mM, PMSF 0.2 mM, E-64 10 μM; 37 °C, 1 h; crude preparation", "experimental": "Peptidase activity was quantified using azocasein hydrolysis. Conditioned media (100 µL) was mixed with 1% (w/v) azocasein in PBS and incubated at […] for 1 h. The reaction was quenched by adding 400 µL of 5% trifluoroacetic acid (TFA), and the mixture was centrifuged at 13,000 rpm for 10 min. Absorbance of the supernatant was measured at 440 nm to determine protease activity. Units of protease activity were calculated as previously described by Loomes et al..\nOvernight cultures were centrifuged (4000 rpm, 4 °C, 12 min), and the supernatant was filtered through a 0.45 µm nitrocellulose membrane. Protease activity was evaluated by incubating 100 µL of supernatant with 1% azocasein at 37 °C for 1 h. The reaction was quenched with 400 µL of TFA, and absorbance was measured at 440 nm. Protease mechanistic class was determined by incubating the supernatant with 2 mM 1,10-phenanthroline (metalloprotease inhibitor), 0.2 mM PMSF (serine protease inhibitor), and 10 µM E-64 (cysteine protease inhibitor) prior to azocasein hydrolysis."}, "[4]": {"system": "E. oxidotolerans peptidase", "test": "Casein zymography with and without 1,10-phenanthroline", "type": "biochemical, Exiguobacterium oxidotolerans", "conditions": "crude and purified samples; 1,10-phenanthroline in renaturing buffer", "experimental": "Casein zymography was used to visualize protease activity in fractions collected from the Akta Prime HIC system. Samples were prepared in Laemmli buffer and run on a Tris-Glycine casein zymogram gel using the XCell SureLock™ Mini-Cell system. Following electrophoresis, gels were sectioned and renatured in Novex zyogram renaturing buffer with and without 1,10 phenanthroline (5 mM) to assess metalloprotease activity. Gels were stained, destained, and analyzed for caseinolytic peptidase activity."}, "PAR-1": {"target": "T1, PAR-1 (Homo sapiens, UniProt P25116)", "T1 construct": "calcium mobilization in PC-3 cells (expressing PAR1); endogenous in cells; host or cells: PC-3", "T1 sequence (P25116 22-425)": "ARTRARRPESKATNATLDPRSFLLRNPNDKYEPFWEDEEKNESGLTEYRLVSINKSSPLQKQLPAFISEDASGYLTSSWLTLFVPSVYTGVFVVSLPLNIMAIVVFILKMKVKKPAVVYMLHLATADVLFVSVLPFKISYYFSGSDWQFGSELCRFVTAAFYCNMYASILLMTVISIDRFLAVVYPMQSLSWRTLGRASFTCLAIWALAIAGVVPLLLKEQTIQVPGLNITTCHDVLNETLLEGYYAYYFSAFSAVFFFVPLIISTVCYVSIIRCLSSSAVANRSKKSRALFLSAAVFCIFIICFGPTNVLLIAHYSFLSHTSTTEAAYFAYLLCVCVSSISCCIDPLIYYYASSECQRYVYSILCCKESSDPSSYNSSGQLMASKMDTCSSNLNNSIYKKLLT", "test": "Calcium mobilization assay in PC-3 cells (Fluo-4 AM)", "type": "cell-based", "conditions": "protease pre-incubated with inhibitor, thrombin-induced activation", "experimental": "Calcium mobilization in PC-3 and HCT15 cells was assessed using the fluorescent calcium indicator Fluo-4 AM (ThermoFisher, UK). Cells were cultured in RPMI-1640 medium with 10% fetal bovine serum and antibiotics, maintained at 37 °C with 5% CO2. Cells were seeded in 96-well plates and incubated with 5 μM Fluo-4 AM for 30 min at 37 °C. After washing, cells were treated with 5 units/well of thermolysin-like protease or the agonists TFLLRN (PAR-1) and SLIGKV (PAR-2). Intracellular calcium changes were monitored using a BMG Fluostar plate reader (excitation: 494 nm, emission: 516 nm)."}}}
{"smiles": "CC(C)C(NC(=O)C(NC(=O)CS)C(C)C)C(N)=O", "note": "(stereo not drawn) [Me-Val-Val-NH2]", "values": [{"measurement": "Ki", "setting": "[1]", "value": 3.21, "unit": "µM"}]}
{"smiles": "O=S(=O)(F)Cc1ccccc1", "note": "[PMSF]", "values": [{"measurement": "Inhibition of hydrolysis of Mca-Lys-Pro-Leu-Gly-Leu-Dap-(Dnp)-Ala-Arg-NH2 (progress curves)", "setting": "[2]", "value": "minimal effects"}, {"measurement": "Inhibition of azocasein hydrolysis", "setting": "[3]", "value": "Slight inhibition"}]}
{"smiles": "NCCCCC(NC(=O)C(CC(N)=O)NC(=O)CS)C(N)=O", "note": "(stereo not drawn) [Me-Asn-Lys-NH2]", "values": [{"measurement": "Ki", "setting": "[1]", "value": 20.9, "unit": "µM"}]}
{"smiles": "c1cnc2c(c1)ccc1cccnc12", "note": "[1,10-phenanthroline]", "values": [{"measurement": "Inhibition of proteolytically active bands in zymogram", "setting": "[4]", "value": "inhibited"}, {"measurement": "Inhibition of hydrolysis of Mca-Lys-Pro-Leu-Gly-Leu-Dap-(Dnp)-Ala-Arg-NH2 (progress curves)", "setting": "[2]", "value": "significantly inhibited"}, {"measurement": "Inhibition of azocasein hydrolysis", "setting": "[3]", "value": "significantly reduced protease activity"}]}
{"smiles": "NC(=O)C(Cc1ccccc1)NC(=O)C(Cc1ccc(O)cc1)NC(=O)CS", "note": "(stereo not drawn) [Me-Tyr-Phe-NH2]", "values": [{"measurement": "Ki", "setting": "[1]", "value": 5.52, "unit": "µM"}]}
{"smiles": "NC(=O)CC(NC(=O)CS)C(=O)NC(Cc1c[nH]c2ccccc12)C(N)=O", "note": "(stereo not drawn) [Me-Asn-Trp-NH2]", "values": [{"measurement": "Ki", "setting": "[1]", "value": 4.35, "unit": "µM"}]}
{"smiles": "CCC(C)C(NC(=O)C(NC(=O)CS)C(C)CC)C(N)=O", "note": "(stereo not drawn) [Me-Ile-Ile-NH2]", "values": [{"measurement": "Ki", "setting": "[1]", "value": 11.2, "unit": "µM"}]}
{"smiles": "N=C(N)NCCCC(NC(=O)C1CCCN1C(=O)CS)C(N)=O", "note": "(stereo not drawn) [Me-Pro-Arg-NH2, SH-CH2-CO-Pro-Arg-NH2]", "values": [{"measurement": "Reversal of the protease's PAR-1 disarming effect", "setting": "PAR-1", "value": "reversed"}, {"measurement": "Ki", "setting": "[1]", "value": 3.97, "unit": "µM"}]}
{"smiles": "NC(=O)CC(NC(=O)CS)C(=O)NC(Cc1ccc(O)cc1)C(N)=O", "note": "(stereo not drawn) [Me-Asn-Tyr-NH2]", "values": [{"measurement": "Ki", "setting": "[1]", "value": 5.71, "unit": "µM"}]}
{"smiles": "CCC(C)C(NC(=O)CS)C(=O)NC(C(N)=O)C(C)C", "note": "(stereo not drawn) [Me-Ile-Val-NH2]", "values": [{"measurement": "Ki", "setting": "[1]", "value": 8.33, "unit": "µM"}]}
{"smiles": "CSCCC(NC(=O)CS)C(=O)NC(Cc1ccc(O)cc1)C(N)=O", "note": "(stereo not drawn) [Me-Met-Tyr-NH2, SH-CH2-CO-Met-Tyr-NH2]", "values": [{"measurement": "Ki", "setting": "[1]", "value": 1.95, "unit": "µM"}]}
{"smiles": "CC(C)C[C@H](NC(=O)[C@H]1O[C@@H]1C(=O)O)C(=O)NCCCCN=C(N)N", "note": "[Inhibitor E-64, E-64]", "values": [{"measurement": "Inhibition of hydrolysis of Mca-Lys-Pro-Leu-Gly-Leu-Dap-(Dnp)-Ala-Arg-NH2 (progress curves)", "setting": "[2]", "value": "minimal effects"}, {"measurement": "Inhibition of azocasein hydrolysis", "setting": "[3]", "value": "partial inhibition"}]}
